# Reference: article PMC9917023, “Stabilization of Monomeric Tau Protein by All D-Enantiomeric Peptide Ligands as Therapeutic Strategy for Alzheimer’s Disease and Other Tauopathies” (International Journal of Molecular Sciences, 2023)
# Non-standard residues stand in square brackets, D forms with d. Residues, ends and D or L forms follow the SMILES beside them.
# Assays:
# [1] = target: T1, monomeric full-length tau 441 (Homo sapiens, UniProt P10636); experiment: SPR measurement (Biacore T200, multicycle); type: binding; conditions: compound immobilized on CM5 chip, tau as analyte, 1:1 fit, dissociation time 60 min; read-out: dissociation rate (kd)
# T1 construct: The gene for the human full-length tau was prepared on a plasmid called pET28a(+)-tau2N4R; made in house; host or cells: E. coli pRare
# Protocol: Figure 8 SPR measurements of TF2D-5 and TF2D-5a with monomeric full-length tau 441 and tau repeat region 3. […] The concentration of tau during the measurement ranged from 3.125 nM to 25 nM. […] Tau was used in concentrations ranging from 31.25 nM to 500 nM. SPR measurements of A and B were recorded on a T200 Biacore instrument, the corresponding compound was immobilized on a CM5 chip from Cytiva while monomeric tau served as analyte. Tests were performed with TBS pH 7.4, 0.05% Tween20 and 10 µM DTT as running buffer. Fit calculation was completed with the internal evaluation software of the T200 Biacore. A 1:1 model was used for both fits. […] The concentrations for the single cycle measurement ranged from 3.125 nM to 100 nM. Measurements of C were performed on a Biacore 8K using a CM5 chip from Cytiva. TF2D-5a was immobilized on the chip while the R3 region of tau was used as analyte. PBS pH 7.4 with 0.05% Tween20 as used as running buffer. Fit calculation was performed using the Biacore insight evaluation software and a 1:1 model. […]
# Measurements of TF2D-5 and TF2D-5a against full-length tau 441 were performed on a Biacore T200 (Biacore, GE Healthcare, Uppsala, Sweden) using multicycle experiments. […] The data were evaluated using the Biacore T200 Evaluation Software 3.2 using a 1:1 fit (RI = 0).
# [2] = Stability in simulated gastric fluid; type: in vitro ADME; conditions: SGF: 2 mg/mL NaCl, 3.2 mg/mL pepsin, 80 mM HCl, pH 1; 8 h
# Protocol: Figure 12 Stability assay of TF2D-5 and TF2D-5a using different simulated human body fluids. (A) Stability of compounds in simulated gastric fluid (SGF). The simulated gastric fluid consisted of 2 mg/mL sodium chloride, 3.2 mg/mL pepsin, and 80 mM HCl; pH 1. (B) Stability of TF2D-5 and TF2D-5a in simulated intestinal fluid (SIF). Simulated intestinal fluid consisted of 6.8 mg/mL potassium dihydrogen phosphate, 10 mg/mL pancreas powder, and 15.4 mM NaOH; pH 6.8. (C) Stability of TF2D-5 and TF2D-5a in human blood plasma. K3EDTA human blood plasma was purchased from BioTrend. (D) Stability of TF2D-5 and TF2D-5a in human liver microsomes. Human liver microsomes consisted of 6 mg/mL protein (containing Cytochrome P450 (CYP) enzymes), 75 mM sucrose, 1.3 mM NADPH, 3.3 mM D-glucose-6-phosphat, 0.2 u/mL D-glucose-6-phosphat dehydrogenase, 3.3 mM magnesium chloride, and 100 mM potassium phosphate; pH 7.4.
# The stability of the compounds was tested according to Elfgen et al. and Schemmert et al. Exceptions included the extraction of plasma, simulated gastric fluid (SGF), and simulated intestinal fluid (SIF) samples. These were obtained by the addition of 12.5 µL 0.35 M ZnSO4, followed by vortexing, the addition of 12.5 µL 0.5 M HCl, additional vortexing, and centrifugation at 14,000× g for 10 min at 4 °C.
# SH-SY5Y cells = experiment: Cell-viability assay (MTT); type: cell-based, human; conditions: 0.2, 1 and 5 µM, 24 h, 37 °C
# Protocol: Human […] SH-SY5Y cells and rat pheochromocytoma PC12 cells were cultivated in RPMI medium with 10% fetal bovine serum and 5% horse serum. On a collagen-coated 96-well plate (Gibco, Life Technology, Carlsbad, CA, USA), 10.000 cells were seeded per well. The plate was incubated for 24 h at 37 °C and 5% CO2. TF2D-5 and TF2D-5a were added to the cells at concentrations of 0.2 µM, 1 µM, and 5 µM, respectively. As a positive control, 0.1% Trion X-100 was used. A medium was used as a negative control. The samples were incubated for a further 24 h at 37 °C and 5% CO2. Cell viability was determined by using the Cell Proliferation Kit 1 (MTT) (Roche, Basel, Switzerland) according to the instruction manual. The absorbance of generated formazan products was measured using a CLARIOstar plate reader (BMG, Offenburg, Germany). Absorption at 570 nm was measured and referenced against absorbance at 660 nm.
# Figure S3. Peptide toxicity assay for different concentrations of TF2D -5 and TF2D-5a.
# For this assay the compounds TF2D -5 and TF2D-5a were incubated on SHSY5Y and PC12 cells for 24 h at 37 °C and 5 % CO2. The “Cell Proliferation Kit 1” from Roche was used for the MTT assay. RPMI with 10 % HS and 5 % FBS was used as cell medium. As […] 0.1 % Triton X100 was used. For both assays no negative effect on the cell viability could be observed by addition of both compounds. […]
# T1 sequence (P10636 1-441 isoform P10636-8): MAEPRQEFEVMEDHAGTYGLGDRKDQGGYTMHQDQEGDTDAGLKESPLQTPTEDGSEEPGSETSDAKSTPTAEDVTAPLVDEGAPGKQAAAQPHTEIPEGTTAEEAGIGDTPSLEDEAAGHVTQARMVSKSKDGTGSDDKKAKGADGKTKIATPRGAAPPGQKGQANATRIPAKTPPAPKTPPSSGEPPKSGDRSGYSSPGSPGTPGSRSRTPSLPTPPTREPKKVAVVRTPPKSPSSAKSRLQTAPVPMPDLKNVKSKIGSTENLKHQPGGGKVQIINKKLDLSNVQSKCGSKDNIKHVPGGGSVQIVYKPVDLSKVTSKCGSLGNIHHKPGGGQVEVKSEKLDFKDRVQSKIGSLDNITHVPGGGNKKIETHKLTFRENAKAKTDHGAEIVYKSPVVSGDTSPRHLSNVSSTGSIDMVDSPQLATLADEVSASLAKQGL
smiles,measurement,setting,value
CC[C@@H](C)[C@@H](NC(=O)[C@@H](Cc1c[nH]cn1)NC(=O)CNC(=O)CNC(=O)[C@H]1CCCN1C(=O)[C@H](NC(=O)[C@@H](CCCCN)NC(=O)[C@@H](Cc1ccccc1)NC(=O)[C@@H](CC(C)C)NC(=O)[C@H](NC(=O)[C@@H](CCC(N)=O)NC(=O)[C@@H](Cc1ccc(O)cc1)NC(=O)CNC(=O)CNC(=O)[C@H](N)CC(=O)O)[C@H](C)CC)[C@H](C)CC)C(=O)N[C@H](Cc1c[nH]cn1)C(N)=O [TF2D-5] (H-[dD]GG[dY][dQ][dI][dL][dF][dK][dI][dP]GG[dH][dI][dH]-NH2),koff,[1],1.9e-05 s⁻¹
same,stability in simulated gastric fluid,[2],very stable in simulated gastric fluid
same,"toxicity (cell viability, MTT)",SH-SY5Y cells,not toxic
CC[C@@H](C)[C@@H](NC(=O)[C@@H](Cc1c[nH]cn1)NC(=O)CNC(=O)CNC(=O)[C@H]1CCCN1C(=O)[C@H](NC(=O)[C@@H](CCCCN)NC(=O)[C@@H](Cc1ccccc1)NC(=O)[C@@H](CC(C)C)NC(=O)[C@H](NC(=O)[C@@H](CCC(N)=O)NC(=O)[C@@H](Cc1ccc(O)cc1)NC(=O)CNC(=O)CNC(=O)[C@H](N)CC(=O)O)[C@H](C)CC)[C@H](C)CC)C(=O)N[C@H](Cc1c[nH]cn1)C(=O)N[C@H](CCCNC(=N)N)C(=O)N[C@H](CCCNC(=N)N)C(=O)N[C@H](CCCNC(=N)N)C(=O)N[C@H](CCCNC(=N)N)C(=O)N[C@H](CCCNC(=N)N)C(N)=O [TF2D-5a] (H-[dD]GG[dY][dQ][dI][dL][dF][dK][dI][dP]GG[dH][dI][dH][dR][dR][dR][dR][dR]-NH2),koff,[1],4.3e-05 s⁻¹
same,stability in simulated gastric fluid,[2],very stable in simulated gastric fluid
same,"toxicity (cell viability, MTT)",SH-SY5Y cells,not toxic
